Assay results published in patent US20250281424A1 (New York Blood Center, Inc, priority 2020, published 2025).

Key:
[1] = Cytotoxicity HepG2 (MTS reduction); assay type: cell-based; settings: human, HepG2 cells; read-out: Cytotox HepG2 EC50
[2] = Mouse microsome stability; assay type: in vitro ADME; settings: for half-life at 0.5 μM: Mouse microsomes, compound conc = 0.5 μM, n = 1, read-out: Mouse microsome stability Half life t1/2; for intrinsic clearance in mouse microsome assay / stability in mouse microsome assay: mouse microsomes
Description: Certain exemplified compounds were examined for ADMET (absorption, distribution, metabolism, excretion and toxicity) profiling using conventional assays with the results shown in the Tables 3A-3C below.

[3] = biological target: T1, ultra large complexes (ULC) between PF4 tetramers and heparin (Homo sapiens, UniProt P02776); assay: Inhibition of formation of ultra large complexes (ULC) of PF4 tetramers and heparin; assay type: biochemical; settings: for IC50: IC50 values are +/−20%
T1 construct: platelet factor 4 which is a 70 amino acid, lysine-rich, 7.8 kDa platelet-specific protein
T1 sequence (P02776 32-101): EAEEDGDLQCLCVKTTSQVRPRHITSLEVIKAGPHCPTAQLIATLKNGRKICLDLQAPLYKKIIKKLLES
Experimental: Since ULCs are formed as part of a dynamic equilibrium between heparin and PF4, dynamic light scattering (DLS) was performed to measure the ability of the exemplified compounds to disrupt preformed ULCs. Samples were analyzed and included PF4 incubated in the absence or presence of unfractionated heparin (UFH) for 20 min at room temperature at PF4 to heparin ratios (PHR) of 1:0 (no heparin), 2:1, and 0.64:1. The samples were then analyzed using photon correlation spectroscopy on a DynaPro® DLS instrument and Dynamics® software (V6.7.6; […]) to obtain correlation function. The results of the DLS analysis indicate the percentage of ULCs and small PF4 particles. Data for the small particles (a population of particles with a mean hydrodynamic diameter of about 1 nm) and data for the large particles (a population of particles with a mean hydrodynamic diameter of about 300 nm) is assessed. Data are expressed as the percent of total intensity from each measurement, the mean of 10 measurements, and representative of two such experiments.
ELISA measurement and gel filtration measurement of ULC inhibition were performed as described in International Patent Publication No. WO2013/142328, which is incorporated herein by reference. Similarly, assays in which heparin concentrations are varied to determine the effect on ULC inhibition were performed as described in that publication.
Certain compounds were evaluated for their ability to inhibit formation of ultra large complexes (ULC) between PF4 tetramers and heparin.

[4] = biological target: T2, human PF4 (Homo sapiens, UniProt P02776); assay: Inhibition of PF4 tetramer formation (BS3 cross-linking, SDS-PAGE); assay type: biochemical; settings: for IC50: read-out: IC50 of PF4 tetramer formation inhibition
T2 construct: PF4 is a 70 amino acid, lysine-rich 7.8 kDa platelet-specific protein; made in house; host or cells: Escherichia coli BL21DE3 pLysS (pT7-7) and/or Drosophila S2 cells
T2 sequence (P02776 32-101): T1 sequence (P02776 32-101)
Procedure, shortened: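 Monomer, dimer, trimer and tetramer fractions were quantified by densitometry after reducing 12% SDS-PAGE of BS3-cross-linked (0.2 mM, 30 min, room temperature) PF4. Before cross-linking, 10 μg/ml E. coli-expressed human WT PF4 in PBS was exposed to compound for 15 min at 37° C or 60 min at room temperature; controls lacked compound.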

inhibition of ULC formation ([3]; FIG. 6B) | inhibition at 100 µM ([4]; 100 μM inhibitor, read-out: % inhibition of PF4 tetramer formation at single concentration of inhibitor) [%] | inhibition of PF4 tetramerization ([4]; FIG. 6A) | Structure (SMILES) | EC50 [1] [µg/mL] | half-life at 0.5 μM [2] [h] | intrinsic clearance in mouse microsome assay [2] | stability in mouse microsome assay [2] | IC50 [3] [µM] | IC50 [4] [µM]
– | – | – | CC(=O)C1C(=O)c2ccc(C(=O)c3ccc4c(c3)C(=O)C(C(C)=O)C4=O)cc2C1=O (stereo not drawn) [Example 1, 5,5′-carbonylbis(2-acetyl-1h-indene-1,3(2h)-dione)] | > 1000 | > 2.42 | low intrinsic clearance | excellent stability | 8 | 7
dose-dependent inhibition | 100 | dose-dependent inhibition | CCOC(=O)C1C(=O)c2ccc(C(=O)c3ccc4c(c3)C(=O)C(C(=O)OCC)C4=O)cc2C1=O (stereo not drawn) [Example 3, diethyl 5,5′-carbonylbis(1,3-dioxo-2,3-dihydro-1h-indene-2-carboxylate)] | > 500 | > 2.42 | low intrinsic clearance | excellent stability | 2 | 2
